From patent US20110105389A1 (priority 2009, published 2011) come the findings set out here.

The target in experiment [1] is T1, GHS-R1a receptor (HEK293 cells expressing GHS-R1a receptor) (Homo sapiens, UniProt Q92847).
T1 construct: host or cells: HEK293
As to the kind of experiment: Fluorescence functional assay (ghrelin receptor), Method B2, agonist and antagonist mode. It is filed as cell-based. The settings on record: functional activity as an antagonist at the ghrelin receptor, Methods B2 and B3. As to the method: • 1. ImageTrak Epi-Fluorescence system (Perkin-Elmer) • 2. MultiDrop TiterTek • 3. CO2 incubators: 5% CO2, humidified, 37° C.
• 1. Hanks' BSS without phenol red (Life Technologies) • 2. Hepes buffer • 3. Probenecid (Sigma) • 4. […] Falcon cell culture 96-well black/clear bottom plates • 6. 0.05% trypsin-EDTA • 7. Cells: HEK293 cells expressing GHS-R1a receptor (Perkin-Elmer BioSignal) were grown in DMEM (Dulbecco's Modified Eagles Medium) with 10% FBS, 1% sodium pyruvate, 1% NEAA and 400 μg/mL geneticin • 8. […] [D-Lys^3]-GHRP-6 (reference antagonist, Phoenix #031-22) • 10. Assay buffer: HBSS-20 mM Hepes containing 2.5 mM probenecid and 0.1% BSA (bovine serum albumin); pH 7.4
Stock solutions of compounds (10 mM in 100% DMSO) were provided frozen on dry ice and stored at −80° C. prior to use. […] Assay plates were then prepared by appropriate dilution in assay buffer.
Typical Final Test Concentrations (N=10) for Test Compounds (agonist):
Typical Final Test Concentrations (N=10) for Test Compounds (antagonist):
Cells were maintained in culture as indicated above. The cells were harvested at a confluency of 70-90% the day before the experiment. Growth medium was removed and the cells rinsed briefly with PBS without Ca^+2 and Mg^+2. 0.05% Trypsin was added and the plates incubated at 37° C. for 5 min to detach the cells. DMEM medium supplemented with 10% FBS was added to inactivate the trypsin and determine the cell concentration. The inoculum was adjusted to a final concentration of 200 cells/μL and dispensed at 200 μL per well into a 96-well block plate. The plates were, incubated at 37° C. overnight.
The plates were removed from the incubator and the media removed by inversion of the plates. Calcium-3 dye, 50 μL, was loaded and then incubated for 1 h at 37° C. The plate was again inverted and then 25 μL of assay buffer added. The plates were then transferred to the ImageTrak system for analysis. For agonist testing, after reading for ten (10) sec, 25 μL of 2× test compound or control was injected into the assay plate. Fluorescence was monitored for an additional 50 sec. A reading was taken every two (2) seconds for a total of 30 readings per assay point.
For antagonist testing, after reading for ten (10) sec, 12.5 μL of 3× test compound or control was injected into the assay plate and allowed to react for three (3) min.
Concentration response curves were analyzed using GraphPad Prism (GraphPad Software, San Diego, Calif.) by non-linear regression analysis (sigmoidal dose-response). EC50 values are calculated using GraphPad.
Emax values were calculated using the following formula: […]
Concentration response curves were analyzed using GraphPad Prism (GraphPad Software, San Diego, Calif.) by non-linear regression analysis (sigmoidal dose-response). IC50 values are calculated using GraphPad.
Imax values were calculated using the following formula: […]

Experiment [2] has as its target T2, ghrelin receptor (HEK-GHSR1 stable cells) (Homo sapiens, UniProt Q92847).
T2 construct: expressed in transfected cells
In words: Ghrelin receptor inverse agonist assay (HTRF IP-one), Method B4. It is filed as cell-based. The settings on record: inverse agonist at the ghrelin receptor, Method B4. From the text:
B4. Ghrelin Receptor Inverse Agonist Assay […]
In addition, the following method can be utilized to assay for inverse agonist activity. (Thomsen, W.; et al. Curr. Opin. Biotechnol. 2005, 16, 655-665; Tozawa-Takahashi F; et al., 11th SBS Annual Conference. September 2005, Geneva; Trinquet, E.; Fink, M.; Bazin, H.; et al. Anal. Biochem. 2006, 358, 126-135; Bergsdorf, C.; Kropp-Goerkis, C.; Kaehler, I.; Ketscher, L.; Boerner, U.; Parczyk, K.; Bader, B. Assay Drug Dev. Technol. 2008, 6, 39-53.)
• 1. Remove culture medium from the plate by inversion. • 2. Add 70 μl of compound/well. • 3. Incubate 30 min at 37° C. • 4. Stop the reaction by adding 15 μl of lysis buffer/well. • 5. Add 15 μl of d2/well. • 6. Add 15 μl of Anti-IP1 cryptate/well. • 7. Incubate 1 h at room temp on an orbital shaker at 100 RPM. • 8. Read the fluorescence in a plate reader (Tecan GeniosPro or similar)
The above sequence was performed using the HTRF IP-one kit (CisBio cat#62P1APEC). For the simultaneous assay of multiple test compounds, 96-well plates can be utilized in this assay (white plate with flat-bottom well, Falcon #353296). These were seeded overnight with 100 000 of HEK-GHSR1 stable cells/well. • Wells A1 and A2 of each plate are used as negative control (wells without d2). Compounds are typically tested in replicate at the following concentrations:
Compounds are stored at 10 mM in 100% DMSO.
1st dilution 1/10 in 100% DMSO (1 mM final concentration).
2nd dilution 1/10 in H2O (0.1 mM final concentration).
Other dilutions are performed in a 96-well plate in stimulation buffer.
The results for representative compounds of the invention are provided in the Examples.
(In general: Time-resolved FRET reads energy transfer from a long-lived donor to a nearby acceptor.)

The target of experiment [3] is T3, human ghrelin receptor (GRLN, growth hormone secretagogue receptor, hGHS-R1a) (Homo sapiens, UniProt Q92847).
T3 construct: purchased PerkinElmer BioSignal #RBHGHSM, lot#1887; host or cells: HEK-293 cells, stably transfected (membranes)
T3 sequence (Q92847 whole entry): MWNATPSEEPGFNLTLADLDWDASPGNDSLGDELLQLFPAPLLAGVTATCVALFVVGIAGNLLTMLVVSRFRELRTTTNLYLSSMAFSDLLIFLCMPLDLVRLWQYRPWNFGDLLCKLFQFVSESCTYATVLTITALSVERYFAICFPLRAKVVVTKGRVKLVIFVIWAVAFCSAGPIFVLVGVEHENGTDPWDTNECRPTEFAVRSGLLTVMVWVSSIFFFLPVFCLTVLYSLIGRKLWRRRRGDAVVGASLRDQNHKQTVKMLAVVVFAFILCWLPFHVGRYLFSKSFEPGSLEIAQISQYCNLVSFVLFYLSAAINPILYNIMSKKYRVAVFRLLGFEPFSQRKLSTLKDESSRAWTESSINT
As to the kind of experiment: Competitive radioligand binding assay (ghrelin receptor), Method B1. The settings on record: Ghrelin receptor binding activity, Method B1. In short, it runs like this:
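Membranes incubated with compound 30 min at rt in 25 mM Hepes pH 7.4, 1 mM CaCl2, 5 mM MgCl2, 2.5 mM EDTA, 0.4% BSA, max 0.1% DMSO; filtered on PEI-soaked GF/C, washed with cold Tris, scintillation counted. Curves fitted by variable-slope non-linear regression.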

T1 sequence (Q92847 whole entry): as above
T2 sequence (Q92847 whole entry): as above

Take `CC[C@@H]1CCc2ccc(F)cc2OCCN[C@@H](C2(C)CC2)C(=O)N(C)[C@@H](C(C)O)C(=O)N[C@H](Cc2cccc(F)c2)C(=O)N1` (some centres unmarked) [Compound 1747]: the “Antagonist Activity” value in experiment [1] is given as “B (B = 1-10 nM)”. Further, the figures for the IC50 in experiment [2] and in experiment [3] were 50 to 100 nM and 10 to 100 nM, respectively.
Regarding `CC[C@@H]1CCc2ccc(F)cc2OCCN[C@@H](C(C)C)C(=O)N(C)[C@@H](C(C)O)C(=O)N[C@H](Cc2ccc(Cl)cc2)C(=O)N1` (some centres unmarked) [Compound 1753], in experiment [1], the “Antagonist Activity” value is “B (B = 1-10 nM)”. In addition, the figures for the IC50 in experiment [2] and in experiment [3] were 50 to 100 nM and 10 to 100 nM, respectively.
`CC1CCc2ccccc2OCCNC(C(C)(C)C)C(=O)N(C)C(C(C)O)C(=O)NC(Cc2cccc(F)c2)C(=O)N1` (centres unmarked) [Compound 1796]: the values for the IC50 in experiment [2] and in experiment [3] were 10 to 50 nM and 1 to 10 nM, respectively.
With `CC(O)C1C(=O)NC(Cc2ccccc2)C(=O)NCC2CCc3cccc(c3C2)OCCNC(C2CCCCC2)C(=O)N1C` (centres unmarked) [Compound 1797], the IC50 in experiment [2] was 100 to 500 nM; in experiment [3], 10 to 100 nM.
As for `CCC(C)C1NCCOc2cccc3c2CC(CC3)CNC(=O)C(Cc2ccccc2)NC(=O)C(C(C)O)N(C)C1=O` (centres unmarked) [Compound 1798], the IC50 in experiment [2] is 100 to 500 nM; in experiment [3], 1 to 10 nM.
Regarding `CCC(C)C1NCCOc2cccc(F)c2C=CCNC(=O)C(Cc2ccc(Cl)cc2)NC(=O)C(C(C)O)N(C)C1=O` (centres unmarked) [Compound 1799], the “Antagonist Activity” value in experiment [1] is recorded as “C (C = 10-100 nM)”. Besides, the IC50 was 50 to 100 nM in experiment [2] and 1 to 10 nM in experiment [3].
On to `CC1CCc2ccccc2OCCNC(C(C)C)C(=O)N(C)C(C(C)O)C(=O)NC(Cc2c[nH]c3ccc(F)cc23)C(=O)N1` (centres unmarked) [Compound 1801], for which the “Antagonist Activity” value in experiment [1] was “B (B = 1-10 nM)”. For the same molecule, the IC50 in experiment [2] fell in the range of 10 to 50 nM; in experiment [3], 1 to 10 nM.
Consider `Cc1ccc2[nH]cc(CC3NC(=O)C(C(C)O)N(C)C(=O)C(C(C)C)NCCOc4ccccc4CCC(C)NC3=O)c2c1` (centres unmarked) [Compound 1802], for which the IC50 in experiment [2] lay within 10 to 50 nM; in experiment [3], 1 to 10 nM.
Regarding `CCC1CCc2ccc(F)cc2OCCNC(C(C)C)C(=O)N(C)C(C(C)O)C(=O)NC(C(C)c2ccccc2)C(=O)N1` (centres unmarked) [Compound 1805], the “Antagonist Activity” value in experiment [1] is “C (C = 10-100 nM)”. For the same molecule, the figures for the IC50 in experiment [2] and in experiment [3] were 100 to 500 nM and 10 to 100 nM, respectively.
Taken in the same sequence, the figures for `CCC1CCc2ccc(Cl)cc2OCCNC(C(C)C)C(=O)N(C)C(C(C)O)C(=O)NC(Cc2c[nH]c3ccccc23)C(=O)N1` (centres unmarked) [Compound 1806] were “C (C = 10-100 nM)”, 100 to 500 nM and 10 to 100 nM.
The corresponding values for `CCC1CCc2ccccc2OCCNC(C(C)C)C(=O)N(C)C(C(C)O)C(=O)NC(Cc2c[nH]c3ccc(F)cc23)C(=O)N1` (centres unmarked) [Compound 1808] are “B (B = 1-10 nM)”, 10 to 50 nM and 1 to 10 nM.
Turning to `CC(C)C1NCCOc2cccc(F)c2C=CCNC(=O)C(C(C)c2ccccc2)NC(=O)C(C(C)O)N(C)C1=O` (centres unmarked) [Compound 1811], the IC50 in experiment [2] is 100 to 500 nM; in experiment [3], 10 to 100 nM.
On to `CCC1CCc2ccc(F)cc2OCCNC(C(C)C)C(=O)N(C)C(C(C)O)C(=O)NC(Cc2cn(S(=O)(=O)c3ccc(C)cc3)c3ccccc23)C(=O)N1` (centres unmarked) [Compound 1812], for which the “Antagonist Activity” value in experiment [1] is given as “C (C = 10-100 nM)”. Moreover, the concentration for half-maximal inhibition (IC50) in experiment [2] was in the range of 50 to 100 nM; in experiment [3] it was 10 to 100 nM.
As to `CCC1CCc2ccc(Cl)cc2OCCNC(C(C)C)C(=O)N(C)C(C(C)O)C(=O)NC(Cc2ccccc2)C(=O)N1` (centres unmarked) [Compound 1813], the IC50 in experiment [2] and in experiment [3] was 100 to 500 nM each time.
Take `CCC1CCc2ccc(Cl)cc2OCCNC(C(C)C)C(=O)N(C)C(C(C)O)C(=O)NC(Cc2cccc(F)c2)C(=O)N1` (centres unmarked) [Compound 1814]: the IC50 in experiment [2] and in experiment [3] was 100 to 500 nM throughout.
As to `CCC1CCc2ccc(F)cc2OCCNC(C(C)C)C(=O)N(C)C(C(C)O)C(=O)NC(Cc2ccco2)C(=O)N1` (centres unmarked) [Compound 1824], the results for the concentration for half-maximal inhibition (IC50) in experiment [2] and in experiment [3] were 100 to 500 nM and 10 to 100 nM, respectively.
The corresponding values for `CCC(C)C1NCCOc2ccccc2C=CCNC(=O)C(Cc2c[nH]c3ccc(F)cc23)NC(=O)C(C(C)O)N(C)C1=O` (centres unmarked) [Compound 1827] are 100 to 500 nM and 10 to 100 nM.
Taken in the same sequence, the figures for `CCC1CCc2ccc(F)cc2OCCNC(CC)C(=O)N(C)C(C(C)O)C(=O)NC(Cc2c[nH]c3ccccc23)C(=O)N1` (centres unmarked) [Compound 1853] were 100 to 500 nM and 10 to 100 nM.
In the case of `CCC1CCc2ccc(F)cc2OCCNC(CC)C(=O)N(C)C(C(C)O)C(=O)NC(Cc2ccccc2)C(=O)N1` (centres unmarked) [Compound 1854], the IC50 in experiment [2] and in experiment [3] was 100 to 500 nM in each case.
Consider `CCC1CCc2ccc(F)cc2OCCNC(CC)C(=O)N(C)C(C(C)O)C(=O)NC(Cc2ccc(F)cc2)C(=O)N1` (centres unmarked) [Compound 1855], for which the IC50 in experiment [2] fell in the range of 100 to 500 nM; in experiment [3], 10 to 100 nM.
Taken in the same sequence, the figures for `CC(O)[C@H]1C(=O)N[C@H](Cc2ccc(Cl)cc2)C(=O)N[C@H](C)CCc2ccc(F)cc2OCCN[C@@H](C2(C)CC2)C(=O)N1C` (some centres unmarked) [Compound 1872] were 10 to 50 nM and 1 to 10 nM.
Consider `CC[C@@H]1CCc2ccc(F)cc2OCCN[C@@H](C2(C)CC2)C(=O)N(C)[C@@H](C(C)O)C(=O)N[C@H](Cc2ccc(Cl)cc2)C(=O)N1` (some centres unmarked) [Compound 1875], for which the IC50 was 50 to 100 nM in experiment [2] and 1 to 10 nM in experiment [3].
Taken in the same sequence, the figures for `CC(O)[C@H]1C(=O)N[C@H](Cc2ccc(F)cc2)C(=O)NCC#Cc2ccccc2OCCN[C@@H](C2(C)CC2)C(=O)N1C` (some centres unmarked) [Compound 1879] were 10 to 50 nM and 10 to 100 nM.
The corresponding values for `CC(O)[C@H]1C(=O)N[C@H](Cc2ccc(F)cc2)C(=O)NCC#Cc2c(F)cccc2OCCN[C@@H](C2(C)CC2)C(=O)N1C` (some centres unmarked) [Compound 1884] are 10 to 50 nM and 1 to 10 nM.

A word on the IC50: it is the concentration that inhibits the measured activity by half.
